Assay results published in US20240294509A1, “PYRIDAZINONE COMPOUND AS PARP7 INHIBITOR” (Euregen Biopharma Co., Ltd., priority 2021, published 2024).
Blank lines part the entries; values can stand above or below the compound they belong to.

Columns and labels:
PARP1 = PARP1 (Homo sapiens (Human), UniProt P09874)
Experimental: (§5) Experimental Principle: The inhibitory effect of the test substance on the enzymatic activity of PARP1/7 is assessed by using an Enzyme-Linked Immunosorbent Assay (ELISA).
(§6) (1) Pre-coating: Add 100 μL of a PBS buffer (10 mM NaH2PO4, 10 mM Na2HPO4, 150 mM NaCl, pH 7.4) containing 20 g/mL of histone to each well of a 96-well plate, and incubate at 4° C. overnight.
(§7) (3) Add 5 μL of the test substance or solvent to each well.
(§8) (4) Add 20 μL of(PARP1 or PARP7 (50 ng/well), and incubate at 30° C. for 1 hour.
(§9) (5) Add 50 μL of streptavidin-HRP to the reaction mixture, and incubate at 30° C. for 30 minutes.
(§10) (6) Finally, add 100 μL of a citrate buffer containing H2O2 and luminol (0.1 M, pH 5.4), and measure the luminescent signal using a microplate reader (Molecular Devices SpectraMax M5).
(§11) (7) Calculate the inhibition rate of PARP1 or PARP7 enzyme activity as [(control group−treatment group)/control group]×10000. Fit the dose-response data with standard dilutions using Prism GraphPad software and calculate the concentration required to achieve 5000 inhibition of PARP1 or PARP7 enzyme activity (IC50).

PARP7 = PARP7 (Homo sapiens (Human), UniProt Q7Z3E1)
Experimental: as §5, §6, §7, §8, §9, §10, §11

NCI-H1373 cells = assay: Inhibitory effect on the proliferation of NCI-H1373 cells (CellTiter-Glo); format: cell-based; details: Homo sapiens, 144 h, 6 days treatment
Source text: 1. Experimental Principle: NCI-H1373 cells are a type of lung adenocarcinoma cells that overexpress PARP7.
2. Experimental Materials: NCI-H1373 cells were obtained from Nanjing Cobioer Biosciences Co., Ltd. CellTiter-Glo® (cell viability chemiluminescent assay reagent) was purchased from Promega (Catalog No. G7571). RPMI-1640 medium was obtained from ATCC (Catalog No. 30-2001). RPMI-1640 medium, penicillin/streptomycin antibiotics were purchased from WISENT. Fetal bovine serum was obtained from Biosera. The Nivo multimode reader was procured from PerkinElmer.
3. Experimental Method: NCI-H1373 cells were seeded in a white 96-well plate with 80 μL of cell suspension per well, containing 3000 NCI-H1373 cells. The cell plate was incubated overnight in a carbon dioxide (CO2) incubator.
The test compounds were serially diluted 5-fold to the 9th concentration, ranging from 2 mmol/L to 5.12 nmol/L, for a duplicate assay. 78 μL of culture medium was added to the intermediate plate, and then, according to the corresponding positions, 2 μL of each gradient-diluted compound was transferred to the intermediate plate. After thorough mixing, 20 μL of the compound solution was transferred to the cell plate. The compound concentration range in the cell plate ranged from 10 μmol/L to 0.0256 nmol/L. The cell plate was incubated in a CO2 incubator for 6 days.
Another cell plate was prepared, and the signal values were read on the day of dosing to obtain the maximum value referred to as Max in the following equation for data analysis. 25 μL of cell viability chemiluminescent assay reagent was added to each well of this cell plate, and it was incubated at room temperature for 10 minutes to stabilize the luminescent signal. Readings were taken using a multimode reader.
After 6 days of treatment, 25 μL of cell viability chemiluminescent assay reagent was added to each well of the cell plate, and it was incubated at room temperature for 10 minutes to stabilize the luminescent signal. Readings were taken using a multimode reader.
The IC50 value was determined by four-parameter curve fitting (obtained by using the “log(inhibitor) vs. response—Variable slope” model in GraphPad Prism).

[1] = Pharmacokinetic properties in SD rats after single intravenous injection and oral administration; format: in vivo; details: SD male rats; for F: oral bioavailability; for AUC(0-inf) / Cmax / clearance / half-life: rat, plasma
Source text: 1. Test purpose: to determine the pharmacokinetic characteristics of some of the example compound of the present invention in SD rats after single intravenous injection(IV) and oral administration(PO) by LC-MS/MS method.
2. Test material: the test drug is self-made from the example compounds of the present invention; Positive control compound RBN2397 purchased from Shanghai BioChemPartner Biotechnology Co., Ltd. SD male rats were obtained from the Laboratory Animal Management Department of Shanghai Family Planning Research Institute. Animal production license number (SCXK (Shanghai) 2018-0006).
Preparation of 0.5% methyl cellulose: 5 g of methyl cellulose were weighed and dissolved in 1000 mL of purified water.
Preparation of oral formulation: A required amount of test compound was weighed and dissolved in 0.5% methyl cellulose solution to obtain a suspension or solution of 0.5 mg/mL or 1.0 mg/mL.
Preparation of intravenous injection formulation: A required amount of test compound was weighed, and dissolved in 0.5 mL of dimethyl sulfoxide to prepare a solution of 4 mg/mL. 0.25 mL of the above solution was added into 0.5 mL of polyethylene glycol 15 hydroxystearate (solutol) and 4.25 mL of physiological saline to obtain a solution of 0.2 mg/mL.
Administration: SD male rats were orally administered (PO) after fasting overnight, and fed 4 hours after administration.
Sample Collection: blood was collected through jugular vein or other suitable vein, and 0.2 mL of blood was collected at each time point. Samples were placed into tubes containing ethylenediamine tetraacetic acid dipotassium salt and kept on ice before centrifugation. Within 1 hour after blood collection, the blood samples were centrifuged at 2-8° C. and 6800 g for 6 minutes and stored at −80° C. The time point for blood collection was 0.083, 0.25, 0.5, 1, 2, 4, 8 and 24 hours after intravenous administration, and 0.25, 0.5, 1, 2, 4, 6, 8 and 24 hours after oral administration.
The intravenous dosage was 1 mg/kg, and the pharmacokinetic parameters for oral administration were standardized to a 1 mg/kg dose.

[2] = Metabolic stability in human liver microsomes; format: in vitro ADME; details: pH 7.4, 1.00 μM compound, 0.5 mg/mL protein, read-out: intrinsic clearance, Clint
Experimental: (§1) 1. Experiment purpose: This study aims to determine the metabolic stability of selected compounds from the embodiments of the invention in liver microsomes of humans, dogs, monkeys, rats, and mice using the LC-MS/MS method.
(§2) Test compounds: The test drug is self-made from the example compounds of the present invention; Positive control compound RBN2397 purchased from Shanghai BioChemPartner Biotechnology Co., Ltd.
(§3) Liver microsomes obtained from Xenotech.
(§4) The incubation was carried out at 37° C. in a CO2 incubator. The reactions were terminated by adding 150 μL of cold acetonitrile at different time points (0, 5, 15, 30, and 45 minutes). The 96-well plate was shaken at 600 rpm for 10 minutes, followed by centrifugation at 6000 rpm for 15 minutes. The supernatant (80 μL) was mixed with 140 μL of pure water, and the remaining amount of the compound was determined using LC-MS/MS. The intrinsic clearance (Clint) was calculated using the formula Clint=k/liver microsomes protein concentration, where “k” is the linear regression slope of log compound remaining percentage against incubation time.

[3] = Metabolic stability in rat liver microsomes; format: in vitro ADME; details: pH 7.4, 1.00 μM compound, 0.5 mg/mL protein, read-out: intrinsic clearance, Clint
Experimental: as §1, §2, §3, §4

[4] = Metabolic stability in dog liver microsomes; format: in vitro ADME; details: pH 7.4, 1.00 μM compound, 0.5 mg/mL protein, read-out: intrinsic clearance, Clint
Experimental: as §1, §2, §3, §4

[5] = Oral gavage, standardized to a 1 mg/kg dose

PARP7, sequence (Q7Z3E1 whole entry): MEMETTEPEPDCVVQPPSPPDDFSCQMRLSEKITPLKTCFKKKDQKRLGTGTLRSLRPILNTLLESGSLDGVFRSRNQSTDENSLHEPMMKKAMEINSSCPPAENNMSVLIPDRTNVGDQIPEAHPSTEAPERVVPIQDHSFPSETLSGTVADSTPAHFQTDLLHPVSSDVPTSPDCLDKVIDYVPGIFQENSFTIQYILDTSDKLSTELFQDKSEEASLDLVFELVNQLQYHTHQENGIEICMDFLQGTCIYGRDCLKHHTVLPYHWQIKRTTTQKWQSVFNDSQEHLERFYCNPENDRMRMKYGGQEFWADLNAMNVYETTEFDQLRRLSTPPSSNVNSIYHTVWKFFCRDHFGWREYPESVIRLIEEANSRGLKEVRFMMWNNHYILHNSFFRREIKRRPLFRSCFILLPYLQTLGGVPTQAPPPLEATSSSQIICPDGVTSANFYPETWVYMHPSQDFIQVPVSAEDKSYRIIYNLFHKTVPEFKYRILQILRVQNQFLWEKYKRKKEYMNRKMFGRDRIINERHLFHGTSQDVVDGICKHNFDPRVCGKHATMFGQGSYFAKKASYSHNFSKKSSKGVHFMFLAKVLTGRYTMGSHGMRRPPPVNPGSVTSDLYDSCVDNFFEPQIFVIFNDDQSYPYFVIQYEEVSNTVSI
PARP1, sequence (P09874 whole entry): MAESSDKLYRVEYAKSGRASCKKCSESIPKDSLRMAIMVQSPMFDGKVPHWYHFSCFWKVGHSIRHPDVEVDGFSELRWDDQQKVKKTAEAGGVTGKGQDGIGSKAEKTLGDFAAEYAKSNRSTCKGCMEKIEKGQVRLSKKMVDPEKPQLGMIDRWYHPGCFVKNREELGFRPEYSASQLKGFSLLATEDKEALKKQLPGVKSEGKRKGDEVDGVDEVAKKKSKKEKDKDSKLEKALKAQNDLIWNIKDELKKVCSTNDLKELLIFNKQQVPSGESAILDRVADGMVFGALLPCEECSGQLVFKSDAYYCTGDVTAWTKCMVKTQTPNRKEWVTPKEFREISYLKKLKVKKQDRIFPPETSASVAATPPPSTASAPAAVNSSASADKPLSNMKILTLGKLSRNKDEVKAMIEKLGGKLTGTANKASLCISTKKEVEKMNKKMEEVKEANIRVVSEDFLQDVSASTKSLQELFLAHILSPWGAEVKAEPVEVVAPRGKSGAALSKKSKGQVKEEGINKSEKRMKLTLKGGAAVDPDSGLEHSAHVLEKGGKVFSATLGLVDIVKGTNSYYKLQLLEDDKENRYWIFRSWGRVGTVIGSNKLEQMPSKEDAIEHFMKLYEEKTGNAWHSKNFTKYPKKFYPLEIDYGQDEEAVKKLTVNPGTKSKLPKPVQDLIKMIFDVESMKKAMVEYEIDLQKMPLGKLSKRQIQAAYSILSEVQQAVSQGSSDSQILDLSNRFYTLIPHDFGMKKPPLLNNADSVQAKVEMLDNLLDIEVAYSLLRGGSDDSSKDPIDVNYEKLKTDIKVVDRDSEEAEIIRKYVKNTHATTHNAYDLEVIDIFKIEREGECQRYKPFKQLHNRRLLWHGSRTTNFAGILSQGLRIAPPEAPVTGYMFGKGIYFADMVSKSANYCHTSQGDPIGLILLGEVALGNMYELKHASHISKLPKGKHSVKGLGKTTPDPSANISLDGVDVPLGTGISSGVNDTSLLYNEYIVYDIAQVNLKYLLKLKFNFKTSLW

SMILES: O=C(CC[C@@H]1C[C@H](N2CCOCC2)CN1c1cc(C(F)(F)F)c(=O)[nH]n1)N1CCN(c2ncc(C(F)(F)F)cn2)CC1 [Compound 35]
IC50 (PARP1): 47 nM
IC50 (PARP7): 4.3 nM

IC50 (PARP1): 12000 nM
IC50 (PARP7): 43 nM
SMILES: O=C([C@@H]1C[C@H](Oc2ccccc2F)CN1c1cc(C(F)(F)F)c(=O)[nH]n1)N1CCN(c2ncc(C(F)(F)F)cn2)CC1 [Compound 67]

SMILES: O=C(CC[C@H]1CCCN1c1cc(C(F)(F)F)c(=O)[nH]n1)N1CCN(c2ncc(C(F)(F)F)cn2)CC1 [Compound 18]
IC50 (PARP1): 2.5 nM
IC50 (PARP7): 2.2 nM

IC50 (NCI-H1373 cells): 12.4 nM
SMILES: O=C(CC[C@@H]1C[C@@H](Oc2cncnc2)CN1c1cc(C(F)(F)F)c(=O)[nH]n1)N1CCN(c2ncc(C(F)(F)F)cn2)CC1 [Compound 63]

SMILES: O=C(CC[C@@H]1C[C@@H]2CCC[C@@H]2N1c1cc(C(F)(F)F)c(=O)[nH]n1)N1CCN(c2ncc(C(F)(F)F)cn2)CC1 [Compound 24]
IC50 (PARP1): 4.1 nM
IC50 (PARP7): 2.1 nM

IC50 (NCI-H1373 cells): 95.9 nM
SMILES: O=C(CC[C@@H]1C[C@@H](c2ccccc2)CN1c1cc(C(F)(F)F)c(=O)[nH]n1)N1CCN(c2ncc(C(F)(F)F)cn2)CC1 [Compound 52]

F ([1]; Oral gavage): 14.34%
AUC(0-inf) ([1]; Intravenous injection, 1 mg/kg): 397 ng·h/mL
Cmax ([1]; Intravenous injection, 1 mg/kg): 477 ng/mL
clearance ([1]; Intravenous injection, 1 mg/kg): 42.2 mL/min/kg
half-life ([1]; Intravenous injection, 1 mg/kg): 40.8 min
AUC(0-inf) [1, 5]: 60.7 ng·h/mL
Cmax [1, 5]: 15.1 ng/mL
SMILES: O=C(CC[C@@H]1C[C@H](Oc2ccccc2)CN1c1cc(C(F)(F)F)c(=O)[nH]n1)N1CCN(c2ncc(C(F)(F)F)cn2)CC1 [Compound 19]

SMILES: CO[C@H]1C[C@@H](CCC(=O)N2CCN(c3ncc(C(F)(F)F)cn3)CC2)N(c2cc(C(F)(F)F)c(=O)[nH]n2)C1 [Compound 34]
IC50 (PARP1): 13.6 nM
IC50 (PARP7): 3.3 nM

SMILES: C[C@H]1CC[C@@H](CCC(=O)N2CCN(c3ncc(C(F)(F)F)cn3)CC2)N1c1cc(C(F)(F)F)c(=O)[nH]n1 [Compound 39]
IC50 (PARP1): 60 nM
IC50 (PARP7): 8 nM

SMILES: O=C(CC[C@@H]1C[C@H](F)CN1c1cc(C(F)(F)F)c(=O)[nH]n1)N1CCN(c2ncc(C(F)(F)F)cn2)CC1 [Compound 43]
IC50 (PARP1): 4 nM
IC50 (PARP7): 4 nM

IC50 (NCI-H1373 cells): 38 nM
F ([1]; Oral gavage): 21.97%
AUC(0-inf) ([1]; Intravenous injection, 1 mg/kg): 360 ng·h/mL
Cmax ([1]; Intravenous injection, 1 mg/kg): 720 ng/mL
clearance ([1]; Intravenous injection, 1 mg/kg): 46.9 mL/min/kg
half-life ([1]; Intravenous injection, 1 mg/kg): 34.8 min
AUC(0-inf) [1, 5]: 89.2 ng·h/mL
Cmax [1, 5]: 53.5 ng/mL
SMILES: O=C(COC[C@@H]1CCCN1c1cc(C(F)(F)F)c(=O)[nH]n1)N1CCN(c2ncc(C(F)(F)F)cn2)CC1 [Compound 1]

SMILES: C[C@@H]1C[C@@H](CCC(=O)N2CCN(c3ncc(C(F)(F)F)cn3)CC2)N(c2cc(C(F)(F)F)c(=O)[nH]n2)C1 [Compound 29]
IC50 (PARP1): 18.3 nM
IC50 (PARP7): 25.6 nM

CLint scaled at 1 μM [2]: 88 mL/min/kg
CLint scaled at 1 μM [3]: 144 mL/min/kg
F ([1]; Oral gavage): 3.76%
AUC(0-inf) ([1]; Intravenous injection, 1 mg/kg): 288 ng·h/mL
Cmax ([1]; Intravenous injection, 1 mg/kg): 634 ng/mL
clearance ([1]; Intravenous injection, 1 mg/kg): 58.1 mL/min/kg
half-life ([1]; Intravenous injection, 1 mg/kg): 20.4 min
AUC(0-inf) [1, 5]: 11.5 ng·h/mL
Cmax [1, 5]: 5.55 ng/mL
CLint scaled at 1 μM [4]: 40.8 mL/min/kg
SMILES: C[C@@H](COCCC(=O)N1CCN(c2ncc(C(F)(F)F)cn2)CC1)Nc1cn[nH]c(=O)c1C(F)(F)F [RBN-2397, reference compound]

SMILES: C[C@H]1CC(CCC(=O)N2CCN(c3ncc(C(F)(F)F)cn3)CC2)N(c2cc(C(F)(F)F)c(=O)[nH]n2)C1 (stereo partly drawn) [Compound 30]
IC50 (PARP1): 7.6 nM
IC50 (PARP7): 5.1 nM
